# In patent US20100197591A1, “4-AMINO-7,8-DIHYDROPYRIDO[4,3-d]PYRIMIDIN-5(6H)-ONE DERIVATIVES” (pfizer Inc, priority 2009, published 2010):
# Target: T1, Human full-length diacylglycerol:acylCoA acyltransferase 1 (DGAT-1) (Homo sapiens, UniProt O75907)
# T1 construct: Human full-length diacylglycerol:acylCoA acyltransferase 1 (DGAT-1) was expressed in Sf9 insect cells; made in house; host or cells: Sf9 insect cells (baculovirus); crude membrane/microsome fraction
# T1 sequence (O75907 1-488): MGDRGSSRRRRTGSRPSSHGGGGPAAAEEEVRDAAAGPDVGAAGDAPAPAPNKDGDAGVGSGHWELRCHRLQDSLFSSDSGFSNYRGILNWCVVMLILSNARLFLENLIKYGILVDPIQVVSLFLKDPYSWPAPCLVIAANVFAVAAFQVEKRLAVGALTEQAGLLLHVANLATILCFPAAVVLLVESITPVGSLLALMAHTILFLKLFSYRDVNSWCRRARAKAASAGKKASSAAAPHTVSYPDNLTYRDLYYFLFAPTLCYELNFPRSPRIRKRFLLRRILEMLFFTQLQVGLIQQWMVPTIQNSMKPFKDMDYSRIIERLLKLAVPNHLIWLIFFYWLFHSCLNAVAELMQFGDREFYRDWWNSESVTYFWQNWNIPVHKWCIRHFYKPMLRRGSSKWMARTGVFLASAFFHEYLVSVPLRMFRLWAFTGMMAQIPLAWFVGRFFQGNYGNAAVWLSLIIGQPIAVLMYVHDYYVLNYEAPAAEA
# Test: DGAT-1 Reduced Microsome Multidose Assay, G7329F Human IC50
# Type: biochemical
# Settings: crude membrane fraction of Sf9 cells expressing human DGAT-1; [14C]decanoylCoA; apparent IC50, average where tested more than once
# Method: Human full-length diacylglycerol:acylCoA acyltransferase 1 (DGAT-1) was expressed in Sf9 insect cells which are then lysed and a crude membrane fraction (105,000×g pellet) was prepared. The DGAT-1 gene is a human DGAT-1 gene described in J Biol Chem 273:26765 (1998) and U.S. Pat. No. 6,100,077.
# In vitro inhibition of DGAT-1 was measured using a modification, further described below, of the assay methodology described in U.S. Pat. No. 6,994,956 B2.
# The cells were cultured as follows. Sf9 cells (20 L) were infected with 4 mL of DGAT-1 Baculovirus Infected Insect Cells (BIIC) for 72 hours in a Wave Bioreactor System 20/50P (Wave Biotec/GE Healthcare).
# Crude DGAT-1 microsomes were prepared as follows. Cell pellets were washed once with ice-cold Dulbecco's phosphate-buffered saline. Cells were collected in tabletop centrifuge (Beckman GS-6KR), 15 minutes, 2000×g, 4° C. Twenty (20) mL of ice-cold Microsome Buffer (MB) was added per 5 g of cell pellet. The suspension was passed through a microfluidizer 3 times (18K psi). The lysate was transferred to centrifuge tubes and centrifuged for 20 minutes at 5000×g (Beckman-Coulter, Inc. Allegra® 64R High-Speed Refrigerated Benchtop Centrifuge, F0650 rotor) at 4° C. The supernatant was transferred to ultracentrifuge tubes and centrifuged at 125,000×g for 1 hour in a Beckman Ti-45 rotor, 4° C. The supernatant fluid was discarded. The pellet was resuspended in 70 mL of MB by sonication. The microsome concentration was determined using Bio-Rad Protein DC Protein Assay. The microsomes were filter sterilized with a 0.22 μm filter. The samples were portioned, flash frozen and stored at −80° C.
# The Microsome Buffer, used for microsome preparation, was prepared by conventional means and contained 125 mM sucrose, 3 mM imidazole, 0.2 μg/mL aprotinin, 0.2 μg/mL leupeptin and 5 mM dithiothreitol (Cleland's reagent), DGAT-1 activity was measured in 384-well format in a total assay volume of 25 μl that contained, Hepes buffer (50 mM, pH 7.5), MgCl2 (10 mM), bovine serum albumin (0.6 mg/ml), [^14C]decanoylCoA (20 μM, 58 Ci/mol) and membranes (25 μg/ml) into which 1,2 dioleoyl-sn-glycerol (75 μM) in acetone has already been incorporated. Inhibitors in DMSO were pre-incubated with membranes before initiating the DGAT-1 reaction by the addition of decanoylCoA. […] The DMSO concentration was 2.5%. The inhibitors were present at a range of eight concentrations to generate an apparent IC50 for each compound. The eight inhibitor concentration employed ranged from 10 μM to 3 nM (from high to low concentration). Specifically, the eight concentrations used were 10 μM, 3 μM, 1 μM, 300 nM, 100 nM, 30 nM, 10 nM and 3 nM.
# Reaction mixtures were neutralized by the addition of 15 μl of tris(hydroxy-methyl)aminomethane (1M, pH 8.0) and then mixed by trituration with 37.5 μl of Microscint™-E (Perkin Elmer). Plates contents were allowed to partition for 15 to 30 min before ^14C was measured in a scintillation spectrometer (Wallac Microbeta Trilux 1450-030 liquid scintillation counter 12 detector in the top-count DPM mode). Percent inhibition of test compounds was computed as […].
# Four separate assays were performed using 4 different methods of analysis. The method of analysis of Assay 1 was the same as Assay 4 (described above) except microsomes were utilized at 25 μg/mL instead of 5 μg/mL. The method of analysis of Assay 2 was the same as Assay 4 (described above) except eleven (11) concentrations of inhibitor were employed instead of eight (8). The method of analysis of Assay 3 was the same as Assay 2 except the compounds were serially diluted in a different laboratory.
# Where this DGAT-1 inhibition assay was performed on a compound more than once, an average is provided for that compound.
row,Structure (SMILES),IC50 [nM]
1,"COc1nc(N)c2c(n1)CCN(c1ccc(C3(CO)CCC3)cc1)C2=O [Example 1O, 4-amino-6-{4-[1-(hydroxymethyl)cyclobutyl]phenyl}-2-methoxy-7,8-dihydropyrido[4,3-d]pyrimidin-5(6H)-one]",35.9
2,"COc1nc(N)c2c(n1)CCN(c1ccc(C3CC3)cc1)C2=O [Example 1E, 4-amino-6-(4-cyclopropylphenyl)-2-methoxy-7,8-dihydropyrido[4,3-d]pyrimidin-5(6H)-one]",28.8
3,"COc1nc(N)c2c(n1)CCN(c1ccc(C(C)(C)C#N)cc1)C2=O [Example 3O, 2-[4-(4-amino-2-methoxy-5-oxo-7,8-dihydropyrido[4,3-d]pyrimidin-6(5H)-yl)phenyl]-2-methylpropanenitrile]",88.3
4,"COc1nc(N)c2c(n1)CCN(c1ccc(C3CC(F)(F)C3)cc1)C2=O [Example 1H, 4-amino-6-[4-(3,3-difluorocyclobutyl)phenyl]-2-methoxy-7,8-dihydropyrido[4,3-d]pyrimidin-5(6H)-one]",57.6
5,COc1nc(N)c2c(n1)CCN(c1ccc(C(C)(C)c3ncn[nH]3)cc1)C2=O [Example 3N],78.5
6,"COc1nc(N)c2c(n1)CCN(c1ccc(C(C)(C)C(=O)O)cc1)C2=O [Example 3D, 2-[4-(4-amino-2-methoxy-5-oxo-7,8-dihydropyrido[4,3-d]pyrimidin-6(5H)-yl)phenyl]-2-methylpropanoic acid]",46.2
7,"COc1nc(N)c2c(n1)CCN(c1ccc(C(C)(C)C)cc1F)C2=O [Example 6I, 4-amino-6-(4-tert-butyl-2-fluorophenyl)-2-methoxy-7,8-dihydropyrido[4,3-d]pyrimidin-5(6H)-one]",4.9
8,"COc1nc(N)c2c(n1)CCN(c1ccc(C(O)(C(F)(F)F)C(F)(F)F)cc1)C2=O [Example 1X, 4-amino-2-methoxy-6-{4-[2,2,2-trifluoro-1-hydroxy-1-(trifluoromethyl)ethyl]phenyl}-7,8-dihydropyrido[4,3-d]pyrimidin-5(6H)-one]",5.19
9,"COc1nc(N)c2c(n1)CCN(c1ccc(C(C)(C)CO)cc1)C2=O [Example 1T, 4-amino-6-[4-(2-hydroxy-1,1-dimethylethyl)phenyl]-2-methoxy-7,8-dihydropyrido[4,3-d]pyrimidin-5(6H)-one]",52.9
10,"COc1nc(N)c2c(n1)CCN(c1ccc(CC(C)C)cc1)C2=O [Example 1Z, 4-amino-6-(4-isobutylphenyl)-2-methoxy-7,8-dihydropyrido[4,3-d]pyrimidin-5(6H)-one]",4.92
11,"COc1nc(N)c2c(n1)CCN(c1ccc(C(C)(C)NC(C)=O)cc1)C2=O [Example 8A, N-{1-[4-(4-amino-2-methoxy-5-oxo-7,8-dihydropyrido[4,3-d]pyrimidin-6(5H)-yl)phenyl]-1-methylethyl}acetamide]",1570
12,"COC(=O)c1ccc(N2CCc3nc(OC)nc(N)c3C2=O)cc1 [Example 2A, Methyl 4-(4-amino-2-methoxy-5-oxo-7,8-dihydropyrido[4,3-d]pyrimidin-6(5H)-yl)benzoate]",50.3
13,"COc1nc(N)c2c(n1)CCN(c1cccc(C(C)C)c1)C2=O [Example 6B, 4-amino-6-(3-isopropylphenyl)-2-methoxy-7,8-dihydropyrido[4,3-d]pyrimidin-5(6H)-one]",873
14,"COc1nc(N)c2c(n1)CCN(c1ccc(OCC3CC3)cc1)C2=O [Example 9H, 4-amino-6-[4-(cyclopropylmethoxy)phenyl]-2-methoxy-7,8-dihydropyrido[4,3-d]pyrimidin-5(6H)-one]",115
15,"CNC(=O)C(C)(C)c1ccc(N2CCc3nc(OC)nc(N)c3C2=O)cc1 [Example 3G, 2-[4-(4-amino-2-methoxy-5-oxo-7,8-dihydropyrido[4,3-d]pyrimidin-6(5H)-yl)phenyl]-N,2-dimethylpropanamide]",126
16,"COc1nc(N)c2c(n1)CCN(c1ccc(C(C)(C)C)c(F)c1)C2=O [Example 6H, 4-amino-6-(4-tert-butyl-3-fluorophenyl)-2-methoxy-7,8-dihydropyrido[4,3-d]pyrimidin-5(6H)-one]",12.6
17,"COc1nc(N)c2c(n1)CCN(c1ccc3c(c1)OCCO3)C2=O [Example 9B, 4-amino-6-(2,3-dihydro-1,4-benzodioxin-6-yl)-2-methoxy-7,8-dihydropyrido[4,3-d]pyrimidin-5(6H)-one]",104
18,"COc1nc(N)c2c(n1)CCN(c1ccc3c(c1)N(C)C(=O)C3(C)C)C2=O [Example 6J, 4-amino-2-methoxy-6-(1,3,3-trimethyl-2-oxo-2,3-dihydro-1H-indol-6-yl)-7,8-dihydropyrido[4,3-d]pyrimidin-5(6H)-one]",256
19,"COc1nc(N)c2c(n1)CCN(c1ccc3c(c1)CCC3)C2=O [Example 1D, 4-amino-6-(2,3-dihydro-1H-inden-5-yl)-2-methoxy-7,8-dihydropyrido[4,3-d]pyrimidin-5(6H)-one]",40.4
20,"COc1nc(N)c2c(n1)CCN(c1ccc(C(=O)O)cc1)C2=O [Example 2E, 4-(4-amino-2-methoxy-5-oxo-7,8-dihydropyrido[4,3-d]pyrimidin-6(5H)-yl)benzoic acid]",1480
21,"COc1nc(N)c2c(n1)CCN(c1ccc(OCC(C)C)cc1)C2=O [Example 9I, 4-amino-6-(4-isobutoxyphenyl)-2-methoxy-7,8-dihydropyrido[4,3-d]pyrimidin-5(6H)-one]",84.1
22,"COc1nc(N)c2c(n1)CCN(c1ccc(C3(C(=O)O)CCC3)cc1)C2=O [Example 1P, 1-[4-(4-amino-2-methoxy-5-oxo-7,8-dihydropyrido[4,3-d]pyrimidin-6(5H)-yl)phenyl]cyclobutanecarboxylic acid]",67.1
23,"COc1nc(N)c2c(n1)CCN(c1ccc(C(C)(C)O)cc1)C2=O [Example 2B, 4-amino-6-[4-(1-hydroxy-1-methylethyl)phenyl]-2-methoxy-7,8-dihydropyrido[4,3-d]pyrimidin-5(6H)-one]",177
24,"COc1nc(N)c2c(n1)CCN(c1ccc([C@H]3CC[C@H](Cc4nc(C)no4)CC3)c(F)c1)C2=O [Example 7E, 4-amino-6-(3-fluoro-4-{trans-4-[(3-methyl-1,2,4-oxadiazol-5-yl)methyl]cyclohexyl}phenyl)-2-methoxy-7,8-dihydropyrido[4,3-d]pyrimidin-5(6H)-one]",38.7
25,"COc1nc(N)c2c(n1)CCN(c1ccc([C@H]3C[C@@H](O)C3)cc1)C2=O [Example 1J, 4-amino-6-[4-(cis-3-hydroxycyclobutyl)phenyl]-2-methoxy-7,8-dihydropyrido[4,3-d]pyrimidin-5(6H)-one]",59.8
